The target of data set [1] is recombinant three-repeat microtubule-binding domain (3R-MBD) of tau protein (Homo sapiens, UniProt P10636). Put plainly: Determination of tau aggregation inhibitory activity (heparin-induced, thioflavin T fluorescence; electron microscope). In kind it is biochemical. To be noted: 3R-MBD tau 10 μM, heparin 10 μM, 37° C. for 16 hours, thioflavin T; read-out: IC50 (μM) Test example 1 (tau aggregation inhibitory activity). On the procedure:
Pharmacological Test Example 1: Determination of Tau Aggregation Inhibitory Activity
A recombinant three-repeat microtubule-binding domain (3R-MBD) of tau protein was expressed in E. coli and was purified and used for the experiment. The purified tau solution was diluted with a 50 mM Tris-HCl buffer (pH 7.6) to a final concentration of 10 μM. The test compounds were prepared using dimethylsulfoxide (DMSO) at 20-fold of their final concentrations and added to the plate so that the DMSO concentration would be 5%. Heparin was added to the plate so that the final concentration would be 10 μM and the plate was left to stand at 37° C. for 16 hours. Thioflavin T was added to the plate so that the concentration would be 10 μM and the fluorescence intensity was measured with a fluorescence plate reader (PerkinElmer, Inc.) (excitation wavelength: 440 nm; emission wavelength: 480 nm).
(§1) The final concentration of each compound at the time of measurement was set at 0.1, 0.3, 1, 3, and 10 μM. The sample to which only DMSO was added was used as a negative control and its fluorescence intensity was taken as 0% inhibitory activity.
The samples were placed on a grid and washed with distilled water. A 1 mM phosphotungstic acid aqueous solution was added to the samples. The samples were washed, dried overnight, and observed.

Data set [2] has as its target T1, recombinant human β-secretase (Homo sapiens, UniProt P56817).
T1 construct: purchased Invitrogen
The experiment in a line: Determination of β-secretase inhibitory activity (BACE-1 FRET assay Kit). It is filed as biochemical. To be noted: recombinant human β-secretase, fluorescent substrate peptide, 1 hour; read-out: IC50 (μM) Test example 2 (β-secretase inhibitory activity). The method, then:
Pharmacological Test Example 2: Determination of β-Secretase Inhibitory Activity
The β-secretase inhibitory activity was measured with BACE-1 FRET assay Kit (Invitrogen). The test compounds were prepared using DMSO at 30-fold of their final concentrations and dissolved so that the DMSO concentration would be 10%. To each of the solutions, an equal volume of a recombinant human β-secretase (1 U/mL) dissolved in the assay buffer and an equal volume of fluorescent substrate peptide (2.5 nM) were added and the solutions were left to stand for 1 hour. The fluorescence intensity was measured with a fluorescence plate reader (excitation wavelength: 545 nm; emission wavelength: 590 nm).
The final concentration of each compound at the time of measurement was set at 0.1, 0.3, 1, 3, and 10 μM, at 0.3, 1, 3, 10, and 30 μM, or at 1, 3, 10, 30, and 100 μM.

In a further data set the target is T2, Aβ 1-42 (Homo sapiens, UniProt P05067).
T2 construct: Aβ 1-42 (Peptide Institute, Inc.) was dissolved in 0.3% ammonia water; purchased Peptide Institute, Inc
The experiment in a line: Determination of Aβ aggregation inhibitory activity (thioflavin T fluorescence). It is filed as biochemical. The settings on record: Aβ 1-42, 37° C. for 24 hours, thioflavin T; read-out: IC50 (μM) Test example 3 (Aβ aggregation inhibitory activity). On the procedure:
Pharmacological test example 3: Determination of Aβ aggregation inhibitory activity
Aβ 1-42 (Peptide Institute, Inc.) was dissolved in 0.3% ammonia water so that the concentration would be 0.5 mM and then diluted with PBS to 20 μM. The test compounds were prepared using DMSO at 100-fold of their final concentrations and adjusted so that the DMSO concentration would be 2%. The Aβ solution and each of the test compound solutions were mixed at an equivalent ratio and the mixtures were incubated at 37° C. for 24 hours. To each of the mixtures, an equal volume of a thioflavin T solution adjusted with a 100 mM Tris-glycine buffer (pH 8.5) to 6 μM was added. The fluorescence intensity was measured with a fluorescence plate reader (excitation wavelength: 440 nm; emission wavelength: 480 nm).
as §1

The nature of data set [3]: Evaluation of in vivo pharmacokinetics (blood and brain concentrations, LC-MS/MS). To be noted: male, rat, SD rats, brain. The method, then: Pharmacological test example 4: Evaluation of in vivo pharmacokinetics
To SD rats (male, 7 weeks old), the test compound was orally administered (p. o.) at an amount of 50 mg/kg bw or intravenously administered (i.v.) at an amount of 1 mg/kg bw and the concentrations in the blood and brain were measured up to 3 hours. The administration vehicle was an 80% PEG 400 aqueous solution. The blood was collected under isoflurane inhalational anesthesia and the brain was harvested after the rats were sacrificed. The plasma was separated from the blood. The brain was homogenized after addition of a three-fold volume of PBS and then methanol was added thereto. Thus the prepared test samples were subjected to measurement. The measurement was performed by LC-MS/MS (Applied Biosystems and Waters).
The blood concentration changes of the compounds of Example 2 and Example 2 (2) ((1E,6E)-1-(1H-indol-6-yl)-7-[2-methoxy-4-(2-pyridylmethoxy)phenyl]hepta-1,6-diene-3,5-dione) after oral administration (p.o.) thereof are shown in FIG. 2. The brain concentration changes of the compounds after intravenous administration (i.v.) and oral administration (p.o.) thereof are shown in Table 2.

Where two headings read alike, the source gives them in different places.

T2 sequence (P05067 672-713): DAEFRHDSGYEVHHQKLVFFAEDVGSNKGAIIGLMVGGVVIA
Chain of recombinant three-repeat microtubule-binding domain (3R-MBD) of tau protein (P10636 186-279 isoform P10636-2 limits assumed): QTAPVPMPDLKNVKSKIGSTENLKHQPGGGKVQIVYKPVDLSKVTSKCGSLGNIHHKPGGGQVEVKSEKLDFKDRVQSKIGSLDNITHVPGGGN
T1 sequence (P56817 46-501): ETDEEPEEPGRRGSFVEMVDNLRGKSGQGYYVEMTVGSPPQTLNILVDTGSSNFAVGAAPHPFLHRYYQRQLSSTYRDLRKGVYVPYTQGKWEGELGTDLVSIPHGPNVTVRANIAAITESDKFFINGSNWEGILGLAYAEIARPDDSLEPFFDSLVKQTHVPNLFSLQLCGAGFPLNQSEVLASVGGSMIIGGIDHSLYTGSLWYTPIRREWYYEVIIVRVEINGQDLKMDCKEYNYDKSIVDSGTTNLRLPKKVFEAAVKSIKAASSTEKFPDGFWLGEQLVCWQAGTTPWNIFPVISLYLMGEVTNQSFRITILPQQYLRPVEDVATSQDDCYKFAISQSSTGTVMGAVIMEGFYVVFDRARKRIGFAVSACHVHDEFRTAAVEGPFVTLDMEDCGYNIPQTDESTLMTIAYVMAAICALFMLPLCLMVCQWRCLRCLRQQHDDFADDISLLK

`COc1cc(OCc2ccccn2)ccc1/C=C/c1cc(/C=C/c2ccc3c(c2)OCCO3)[nH]n1` [Example 83, 3-[(1E)-2-(1,4-benzodioxan-6-yl)ethenyl]-5-[(1E)-2-[2-methoxy-4-(2-pyridylmethoxy)phenyl]ethenyl]-1H-pyrazole] displayed a melting point of 153 to 155 °C. The IC50 in data set [1] stood at 0.85 µM. The IC50 in data set [2] worked out at 22.7 µM. Further, the IC50 at Aβ 1-42 was greater than 10 µM.

In turn, `CN1CCCN(c2ccc(/C=C/c3cc(/C=C/c4ccc5cc[nH]c5c4)[nH]n3)c(Br)c2)CC1` [Example 72, 3-[(1E)-2-[2-bromo-4-(4-methyl-1,4-diazepan-1-yl)phenyl]ethenyl]-5-[(1E)-2-(1H-indol-6-yl)ethenyl]-1H-pyrazole] displayed a melting point of 132 to 136 °C. In data set [1], the IC50 was 1.46 µM. In addition, in data set [2], the IC50 was found to be 0.22 µM. Moreover, the IC50 at Aβ 1-42 worked out at 2.45 µM.

With `COc1cc(OCc2ccccn2)ccc1/C=C/C(=O)CC(=O)/C=C/c1ccc2cc[nH]c2c1` [Example 2 (2), (1E,6E)-1-(1H-indol-6-yl)-7-[2-methoxy-4-(2-pyridylmethoxy)phenyl]hepta-1,6-diene-3,5-dione], in data set [3] (intravenous 1 mg/kg bw, 5 min, read-out: brain concentration i.v. 5 min), the concentration at 5 min stood at 5.15 ± 3.34 ng/mL. Moreover, the concentration at 180 min in data set [3] (intravenous 1 mg/kg bw, read-out: brain concentration i.v. 180 min) was determined as 0.93 ± 0.67 ng/mL; in data set [3] (oral 50 mg/kg bw, read-out: brain concentration p.o. 180 min), 18 ± 30.8 ng/mL. Moreover, the concentration at 60 min in data set [3] (oral 50 mg/kg bw, 60 min, read-out: brain concentration p.o. 60 min) is 0 ng/mL.

`COc1cc(OCc2ccccc2)ccc1/C=C/c1cc(/C=C/c2ccc3cc[nH]c3c2)[nH]n1` [Example 63, 3-[(1E)-2-(4-benzyloxy-2-methoxyphenyl)ethenyl]-5-[(1E)-2-(1H-indol-6-yl)ethenyl]-1H-pyrazole] gave a melting point of 86 to 91 °C. Besides, the IC50 in data set [1] stood at 1.37 µM. The IC50 in data set [2] was determined as 4.39 µM. Also, on Aβ 1-42, the IC50 is greater than 10 µM.

Regarding `COc1cc(OCc2ccccn2)ccc1/C=C/c1cc(/C=C/c2ccc3c(c2)OCO3)[nH]n1` [Example 77, 3-[(1E)-2-(1,3-benzodioxol-5-yl)ethenyl]-5-[(1E)-2-[2-methoxy-4-(2-pyridylmethoxy)phenyl]ethenyl]-1H-pyrazole], the melting point lay within 218 to 220 °C. Besides, the IC50 in data set [1] amounted to 1.26 µM. In data set [2], the IC50 is 13.7 µM. Also, the IC50 on Aβ 1-42 is greater than 10 µM.

`COc1cc(OCc2nccs2)ccc1/C=C/c1cc(/C=C/c2ccc3cc[nH]c3c2)[nH]n1` [Example 82, 3-[(1E)-2-(1H-indol-6-yl)ethenyl]-5-[(1E)-2-[2-methoxy-4-(1,3-thiazol-2-ylmethoxy)phenyl]ethenyl]-1H-pyrazole] had a melting point of 229 to 237 °C. For the same compound, in data set [1], the IC50 came out at 1.04 µM. Besides, the IC50 in data set [2] is 3.99 µM. The IC50 at Aβ 1-42 was found to be 4.43 µM.

The IC50 is the concentration that gives 50% inhibition. Usually melting point stands for the temperature of the solid-liquid transition.

The values above are taken from patent publication US9399635B2, “Pyrazole derivative” (GREEN TECH CO., LTD., priority 2011, dated 2016).
